Reference: patent US20230091225A1, “Bifunctional chimeric heterocyclic compounds for targeted degradation of androgen receptors and use thereof” (HINOVA PHARMACEUTICALS INC., priority 2019, published 2023)

Test system: LNCaP/AR cells
Assay: Inhibition of proliferation of LNCaP/AR prostate cancer cells (CCK-8)
Type: cell-based
Conditions: 144 h; proliferation of LNCap/AR cells, 6 days, CCK-8; read-out: IC50

| Molecule | IC50 [nM] |
| --- | --- |
| CC1(C)[C@H](Oc2ccc(C#N)c(Cl)c2)C(C)(C)[C@H]1N1Cc2cc(C#CC3CCN(C4CN(c5ccc6c(c5)C(=O)N(C5CCC(=O)NC5=O)C6=O)C4)CC3)ccc2C1=O (some centres unmarked) [Compound 53, 2-chloro-4-((1r,3r)-3-(5-((1-(I-(2-(2,6-dioxopiperidin-3-yl)-1,3-dioxoisoindolin-5-yl)azelaic acid-3-yl)piperidin-4-yl)ethynyl)-1-oxoisoindolin-2-yl)-2,2,4,4-tetramethylcyclobutoxy)benzonitrile] | 100 to 500 |
| CC1(C)[C@H](Oc2ccc(C#N)c(Cl)c2)C(C)(C)[C@H]1N1Cc2cc(C#CC3CCN(C4CCN(c5ccc6c(c5)C(=O)N(C5CCC(=O)NC5=O)C6=O)CC4)CC3)ccc2C1=O (some centres unmarked) [Compound 52] | 100 to 500 |
| Cc1ncsc1-c1ccc([C@H](C)NC(=O)[C@@H]2C[C@@H](O)CN2C(=O)[C@@H](NC(=O)COCCCCCCc2ccc3c(c2)CN([C@H]2C(C)(C)[C@H](Oc4ccc(C#N)c(Cl)c4)C2(C)C)C3=O)C(C)(C)C)cc1 [Compound 408, (2S,4R)-1-((S)-2-(2-((6-(2-((1r,3r)-3-(3-chloro-4-cyanophenoxy)-2,2,4,4-tetramethylcyclobutyl)-1-oxoisoindolin-5-yl)hexyl)oxy)acetamide)-3,3-dimethylbutyryl)-4-hydroxy-N-((S)-1-(4-(4-methylthiazol-5-yl)phenyl)ethyl) pyrrolidine-2-carboxamide] | 100 to 500 |
| [2H]C([2H])([2H])N(C(=O)c1ccc(N2CCC(CN3CCN(c4cc5c(cc4F)CN(C4CCC(=O)NC4=O)C5=O)CC3)CC2)nc1)[C@H]1CC[C@H](Oc2ccc(C#N)c(Cl)c2)CC1 (some centres unmarked) [Compound 306, N-((1r,4r)-4-(3-chloro-4-cyanophenoxy)cyclohexyl)-6-(4-((4-(2-(2,6-dioxopiperidin-3-yl)-6-fluoro-3-oxoisoindol-5-yl)piperazin-1-yl)methyl)piperidin-1-yl)-N-deuteromethylnicotinamide] | > 1000 |
| [2H]C1([2H])c2cc(C#CCCCOCC(=O)N[C@H](C(=O)N3C[C@H](O)C[C@H]3C(=O)N[C@@H](C)c3ccc(-c4scnc4C)cc3)C(C)(C)C)ccc2C(=O)N1[C@H]1C(C)(C)[C@H](Oc2ccc(C#N)c(Cl)c2)C1(C)C [Compound 403] | < 100 |
| N#Cc1ccc(O[C@H]2CC[C@H](N3Cc4cc(N5CCC(CN6CCN(c7ccc8c(c7)CN(C7CCC(=O)NC7=O)C8=O)CC6)CC5)ncc4C3=O)CC2)cc1Cl (some centres unmarked) [Compound 312] | 100 to 500 |
| CC(=O)O[C@@H]1C[C@@H](C(=O)N[C@@H](C)c2ccc(-c3scnc3C)cc2)N(C(=O)[C@@H](NC(=O)COCC2CCN(c3ccc4c(c3)CN([C@H]3C(C)(C)[C@H](Oc5ccc(C#N)c(Cl)c5)C3(C)C)C4=O)CC2)C(C)(C)C)C1 [Compound 410] | < 100 |
| Cc1ncsc1-c1ccc([C@H](C)NC(=O)[C@@H]2C[C@@H](O)CN2C(=O)[C@@H](NC(=O)COCCCCC#Cc2ccc(C(=O)N[C@H]3C(C)(C)[C@H](Oc4ccc(C#N)c(Br)c4)C3(C)C)cc2)C(C)(C)C)cc1 [Compound 404] | < 100 |
| CC1(C)[C@H](Oc2ccc(C#N)c(Cl)c2)C(C)(C)[C@H]1N1Cc2cc(C#Cc3cnn(C4CN(c5cc6c(cc5F)C(=O)N(C5CCC(=O)NC5=O)C6=O)C4)c3)ccc2C1=O (some centres unmarked) [Compound 45] | > 1000 |
| N#Cc1ccc(O[C@H]2CC[C@H](N3Cc4cc(N5CCC(CN6CCN(c7cc8c(cc7F)C(=O)N(C7CCC(=O)NC7=O)C8)CC6)CC5)ncc4C3=O)CC2)cc1Cl (some centres unmarked) [Compound 313] | < 100 |
| [2H]C([2H])([2H])N(C(=O)c1ccc(N2CCC(CN3CCN(c4cc5c(cc4F)C(=O)N(C4CCC(=O)NC4=O)C5)CC3)CC2)nc1)[C@H]1CC[C@H](Oc2ccc(C#N)c(Cl)c2)CC1 (some centres unmarked) [Compound 305, N-((1r,4r)-4-(3-chloro-4-cyanophenoxy)cyclohexyl)-6-(4-((4-(2-(2,6-dioxopiperidin-3-yl)-6-fluoro-1-oxoisoindol-5-yl)piperazin-1-yl)methyl)piperidin-1-yl)-N-deuteromethylnicotinamide] | 500 to 1000 |
| Cc1ncsc1-c1ccc([C@H](C)NC(=O)[C@@H]2C[C@@H](O)CN2C(=O)[C@@H](NC(=O)COCCCCCNc2ccc3c(c2)CN([C@H]2C(C)(C)[C@H](Oc4ccc(C#N)c(Br)c4)C2(C)C)C3=O)C(C)(C)C)cc1 [Compound 433, (2S,4R)-1-((S)-2-(2-((5-((2-((1r,3r)-3-(3-bromo-4-cyanophenoxy)-2,2,4,4-tetramethylcyclobutyl)-1-oxoisoindolin-5-yl)amino)pentyl)oxy)acetylamino)-3,3-dimethylbutyryl)-4-hydroxy-N-((S)-1-(4-(4-methylthiazole5-yl)phenyl)ethyl) pyrrolidinyl-2-carboxamide] | > 1000 |
| Cc1ncsc1-c1ccc([C@H](C)NC(=O)[C@@H]2C[C@@H](O)CN2C(=O)[C@@H](NC(=O)COCCCCC#Cc2ccc3c(c2)CN([C@H]2C(C)(C)[C@H](Oc4ccc(C#N)c(Cl)c4)C2(C)C)C3=O)C(C)(C)C)cc1 [Compound 29] | < 100 |
| Cc1ncsc1-c1ccc([C@H](C)NC(=O)[C@@H]2C[C@@H](O)CN2C(=O)[C@@H](NC(=O)COCCCC#Cc2ccc3c(c2)CN([C@H]2C(C)(C)[C@H](Oc4ccc(C#N)c(Cl)c4)C2(C)C)C3=O)C(C)(C)C)cc1 [Compound 21] | < 100 |
| CC(=O)O[C@@H]1C[C@@H](C(=O)N[C@@H](C)c2ccc(-c3scnc3C)cc2)N(C(=O)[C@@H](NC(=O)COCCCCCNc2ccc3c(c2)CN([C@H]2C(C)(C)[C@H](Oc4ccc(C#N)c(Cl)c4)C2(C)C)C3=O)C(C)(C)C)C1 [Compound 412] | < 100 |

Same assay, conditions: LNCaP/AR, 144 h

| Molecule | IC50 [nM] |
| --- | --- |
| Cc1ncsc1-c1ccc([C@H](C)NC(=O)[C@@H]2C[C@@H](O)CN2C(=O)[C@@H](NC(=O)COCCOC(C)C#Cc2ccc3c(c2)CN([C@H]2C(C)(C)[C@H](Oc4ccc(C#N)c(Cl)c4)C2(C)C)C3=O)C(C)(C)C)cc1 (some centres unmarked) [Compound 37] | < 100 |
| N#Cc1ccc(O[C@H]2CC[C@H](N3Cc4cc(N5CCC(CN6CCN(c7cc8c(cc7F)C(=O)N(C7CCC(=O)NC7=O)C8=O)CC6)CC5)ncc4C3=O)CC2)cc1Cl (some centres unmarked) [Compound 311] | > 1000 |

Same assay, conditions: proliferation of LNCap/AR cells, 6 days, CCK-8; read-out: IC50

| Molecule | IC50 [nM] |
| --- | --- |
| Cc1ncsc1-c1ccc([C@H](C)NC(=O)[C@@H]2C[C@@H](O)CN2C(=O)[C@@H](NC(=O)C2(OCCCCC#Cc3ccc4c(c3)CN(C3C(C)(C)C(Oc5ccc(C#N)c(Cl)c5)C3(C)C)C4=O)CC2)C(C)(C)C)cc1 (some centres unmarked) [Compound 41] | < 100 |
| Cc1ncsc1-c1ccc([C@H](C)NC(=O)[C@@H]2C[C@@H](O)CN2C(=O)[C@@H](NC(=O)COCCCCn2cc(-c3ccc4c(c3)CN([C@H]3C(C)(C)[C@H](Oc5ccc(C#N)c(Cl)c5)C3(C)C)C4=O)nn2)C(C)(C)C)cc1 [Compound 30, (2s,4r)-1-((s)-2-(2-(4-(4-(2-((1r,3r)-3-(3-chloro-4-cyanophenoxy)-2,2,4,4-tetramethylcyclobutyl)-1-oxoisobutanol-5-yl)-1H-1,2,3-triazol-1-yl)butoxy)acetamido)-3,3-dimethylbutyryl)-4-hydroxy-N-((S)-1-(4-(4-methylthiazol-5-yl)phenyl)ethyl)pyrrolidine-2-carboxamide] | 100 to 500 |
| (2R,4R)-1-((S)-2-(2-((1-(3-(2-((1r,3r)-3-(3-chloro-4-cyanophenoxy)-2,2,4,4-tetramethylcyclobutyl)-1-oxoisoindolin-5-yl)prop-2-yn-1-yl)azetidine-3-yl)oxy) acetylamino)-3,3-dimethylbutyryl)-4-hydroxy-N-((S)-1-(4-(4-(4-methylthiazol-5-yl)phenyl)ethyl)pyrrolidine-2-carboxamide [Compound 40] | 100 to 500 |
| (2S,4R)-1-((S)-2-(2-((2-((5-(1r,3r)-3-(3-chloro-4-cyanophenoxy)-2,2,4,4-tetramethylcyclobutyl)-1-oxoisoindolin-5-yl)oxy)pentyl)oxy)acetamide)-3,3-dimethylbutyryl)-4-hydroxy-N-((S)-1-(4-(4-methylthiazol-5-yl)phenyl)ethyl) pyrrolidine-2-carboxamide [Compound 406] | 100 to 500 |
| (2R,4R)-1-((S)-2-(2-((5-((4-((1r,3r)-3-(4-(4H-1,2,4-triazol-1-yl)phenoxy)-2,2,4,4-tetramethylcyclobutyl)carbamoyl)phenyl)amino)pentyl)oxy)acetamide)-3,3-dimethylbutyryl)-4-hydroxy-N-((S)-1-(4-(4-methylthiazol-5-yl)phenyl)ethyl) pyrrolidine-2-carboxamide [Compound 405] | > 1000 |
| (2R,4R)-1-((S)-2-(2-((6-(4-(((1r,3r)-3-(3-chloro-4-cyanophenoxy)-2,2,4,4-tetramethylcyclobutyl)(methoxy)benzamido)hex-5-yn-1-)oxy)acetamido)-3,3-dimethylbutyryl)-4-hydroxy-N-((S)-1-(4-(4-methylthiazol-5-)phenyl)ethyl) tetrahydropyrrole-2-amide [Compound 435] | 500 to 1000 |
| CC1(C)C(Oc2ccc(C#N)c(Cl)c2)C(C)(C)C1N1Cc2nc(N3CCC(CN4CCN(c5ccc6c(c5)C(=O)N([C@@H]5CCC(=O)NC5=O)C6=O)CC4)CC3)ccc2C1=O (some centres unmarked) [Compound 202, 2-chloro-4-((1r,3r)-3-(2-(4-((4-(2,6-dioxopiperidin-3-yl-1,3-dioxoisoindolin-5-yl)piperazin-1-yl)methyl)piperidin-1-yl)-5-oxo-5,7-dihydro-6H-pyrrolo[3,4-b]pyridin-6-yl)-2,2,4,4-tetramethylcyclobutoxy)benzonitrile] | 100 to 500 |
| 2-chloro-4-((1r,4r)-4-(2-(4-((4-(3-(2,6-dioxopiperidin-3-yl)-2-methyl-4-oxo-3,4-dihydroquinazoline-7-yl)piperazin-1-yl)methyl)piperidin-1-yl)-5-oxo-5H-pyrrolo[3,4-b]pyridin-6(7H)-yl)cyclohexyl)oxy)benzonitrile [Compound 309] | 100 to 500 |
| CC1(C)[C@H](Oc2ccc(C#N)c(Cl)c2)C(C)(C)[C@H]1N1Cc2cc(C#Cc3cnn(C4CN(c5cc6c(cc5F)C(=O)N(C5CCC(=O)NC5=O)C6=O)C4)c3)ccc2C1=O (some centres unmarked) [Compound 310, 2-chloro-4-((1r,3r)-3-(5-((1-(1-(2-(2,6-dioxopiperidin-3-yl)-6-fluoro-1,3-dioxoisoindolin-5-yl)azetidine-3-yl)-1H-pyrazol-4-yl)ethynyl)-1-oxoisoindolin-2-yl)-2,2,4,4-tetramethylcyclobutoxy)benzonitrile] | > 1000 |
